Laboratory results reported in patent US9359293B2, “Methods of treatment using modulators of SIRT2” (priority 2011, dated 2016).
“Also recorded” adds a separate entry of the source.

Key:
Sirt1 = Sirt1 (Homo sapiens (Human), UniProt Q96EB6); experiment: Sirtuin deacylase inhibition, HPLC assay (H3K9Ac peptide); assay type: biochemical; details: for IC50: 1 μM sirtuin, 1 mM NAD, 30 min pre-incubation, H3K9Ac, 2 minutes; for inhibition of Sirt1 (in words): summary of Table 1
Description: (§1) Then 0.05 mM acyl peptides (H3K9Ac for Sirt1, Sirt2 and Sirt3; H3K9Su for Sirt5; H3K9Myr for Sirt6 and Sirt7) were added to initiate the reactions. The total reaction volume iwas […]. Then reactions were incubated at 37° C. for a certain amount of time (2 minutes for Sirt1, 10 minutes for Sirt2 and Sirt5, 30 minutes for Sirt3, and 1 hour for Sirt6 and Sirt7). The reactions were stopped by adding […] of an aqueous solution containing 200 mM HCl and 320 mM acetic acid. After centrifugation to remove precipitated proteins, the supernatant was analyzed by HPLC with a reverse phase C18 column (250×4.6 mm, 90 A, […], GraceVydac, Southborough, Mass.), with a linear gradient of 0% to 20% B for 10 minutes (1 mL/min). […] All reactions were done in duplicate.

Sirt2 = Sirt2 (Homo sapiens (Human), UniProt Q8IXJ6); experiment: as above; assay type: biochemical; details: for IC50: 1 μM sirtuin, 1 mM NAD, 30 min pre-incubation, H3K9Ac, 10 minutes
Sirt2, sequence (Q8IXJ6 whole entry): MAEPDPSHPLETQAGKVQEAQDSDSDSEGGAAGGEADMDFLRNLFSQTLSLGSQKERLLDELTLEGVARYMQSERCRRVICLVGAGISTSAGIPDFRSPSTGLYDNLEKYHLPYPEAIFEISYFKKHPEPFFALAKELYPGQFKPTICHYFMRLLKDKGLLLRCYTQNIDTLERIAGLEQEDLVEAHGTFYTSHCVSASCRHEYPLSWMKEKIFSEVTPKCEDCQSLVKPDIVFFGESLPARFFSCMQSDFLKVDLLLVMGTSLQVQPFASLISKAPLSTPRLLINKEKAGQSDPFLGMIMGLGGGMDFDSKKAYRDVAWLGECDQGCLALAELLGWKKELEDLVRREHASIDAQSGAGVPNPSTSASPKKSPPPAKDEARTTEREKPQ
Description: as §1

Sirt3 = Sirt3 (Homo sapiens (Human), UniProt Q9NTG7); experiment: as above; assay type: biochemical; details: 1 μM sirtuin, 1 mM NAD, 30 min pre-incubation
Sirt3, sequence (Q9NTG7 whole entry): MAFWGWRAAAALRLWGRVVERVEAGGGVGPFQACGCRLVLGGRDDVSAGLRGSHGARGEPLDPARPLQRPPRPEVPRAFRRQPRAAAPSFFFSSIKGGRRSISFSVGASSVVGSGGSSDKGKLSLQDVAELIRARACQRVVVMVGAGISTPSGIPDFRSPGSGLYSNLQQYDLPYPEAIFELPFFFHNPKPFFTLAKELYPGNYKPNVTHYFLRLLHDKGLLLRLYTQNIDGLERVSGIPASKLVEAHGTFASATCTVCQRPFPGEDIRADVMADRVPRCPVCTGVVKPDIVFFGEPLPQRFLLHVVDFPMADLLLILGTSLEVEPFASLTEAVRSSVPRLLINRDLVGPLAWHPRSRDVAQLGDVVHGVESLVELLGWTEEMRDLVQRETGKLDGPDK
Description: as §1, with “Distinct selectivity profiles were found for each of the inhibitors studied. Different concentrations of TA, TB, TH, or TM were pre-incubated with 1 μM of the sirtuin and 1 mM NAD in 20 mM Tris-HCl buffer (pH 8.0) with 1 mM dithiothreitol (DTT) at 37° C. for 30 minutes. Then 0.05” for “Then 0.05”

Sirt5 = Sirt5 (Homo sapiens (Human), UniProt Q9NXA8); experiment: Sirtuin deacylase inhibition, HPLC assay (H3K9Su peptide); assay type: biochemical; details: 1 μM sirtuin, 1 mM NAD, 30 min pre-incubation, 10 minutes
Sirt5, sequence (Q9NXA8 37-310): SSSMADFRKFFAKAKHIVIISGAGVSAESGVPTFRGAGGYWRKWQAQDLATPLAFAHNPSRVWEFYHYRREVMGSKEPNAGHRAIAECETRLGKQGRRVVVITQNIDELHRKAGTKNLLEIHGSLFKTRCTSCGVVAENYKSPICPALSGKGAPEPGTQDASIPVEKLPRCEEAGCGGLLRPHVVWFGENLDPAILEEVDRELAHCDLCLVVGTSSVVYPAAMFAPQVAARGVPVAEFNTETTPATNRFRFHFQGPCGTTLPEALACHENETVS
Description: as §1, with “Distinct selectivity profiles were found for each of the inhibitors studied. Different concentrations of TA, TB, TH, or TM were pre-incubated with 1 μM of the sirtuin and 1 mM NAD in 20 mM Tris-HCl buffer (pH 8.0) with 1 mM dithiothreitol (DTT) at 37° C. for 30 minutes. Then 0.05” for “Then 0.05”

Sirt6 = Sirt6 (Homo sapiens (Human), UniProt Q8N6T7); experiment: Sirtuin deacylase inhibition, HPLC assay (H3K9Myr peptide); assay type: biochemical; details: 1 μM sirtuin, 1 mM NAD, 30 min pre-incubation, 1 hour
Sirt6, sequence (Q8N6T7 whole entry): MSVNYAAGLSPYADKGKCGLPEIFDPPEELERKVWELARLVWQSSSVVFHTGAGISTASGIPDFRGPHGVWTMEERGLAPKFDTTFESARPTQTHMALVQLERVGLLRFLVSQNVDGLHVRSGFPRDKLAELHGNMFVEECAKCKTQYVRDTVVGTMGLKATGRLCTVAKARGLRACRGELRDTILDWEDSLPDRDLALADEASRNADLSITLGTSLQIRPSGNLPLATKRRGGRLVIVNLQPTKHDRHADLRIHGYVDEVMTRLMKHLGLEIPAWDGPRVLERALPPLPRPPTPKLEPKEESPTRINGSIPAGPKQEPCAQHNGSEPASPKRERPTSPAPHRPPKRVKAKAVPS
Description: as §1, with “Distinct selectivity profiles were found for each of the inhibitors studied. Different concentrations of TA, TB, TH, or TM were pre-incubated with 1 μM of the sirtuin and 1 mM NAD in 20 mM Tris-HCl buffer (pH 8.0) with 1 mM dithiothreitol (DTT) at 37° C. for 30 minutes. Then 0.05” for “Then 0.05”

Sirt7 = Sirt7 (Homo sapiens (Human), UniProt Q9NRC8); experiment: as above; assay type: biochemical; details: 1 μM sirtuin, 1 mM NAD, 30 min pre-incubation, 1 hour
Sirt7, sequence (Q9NRC8 whole entry): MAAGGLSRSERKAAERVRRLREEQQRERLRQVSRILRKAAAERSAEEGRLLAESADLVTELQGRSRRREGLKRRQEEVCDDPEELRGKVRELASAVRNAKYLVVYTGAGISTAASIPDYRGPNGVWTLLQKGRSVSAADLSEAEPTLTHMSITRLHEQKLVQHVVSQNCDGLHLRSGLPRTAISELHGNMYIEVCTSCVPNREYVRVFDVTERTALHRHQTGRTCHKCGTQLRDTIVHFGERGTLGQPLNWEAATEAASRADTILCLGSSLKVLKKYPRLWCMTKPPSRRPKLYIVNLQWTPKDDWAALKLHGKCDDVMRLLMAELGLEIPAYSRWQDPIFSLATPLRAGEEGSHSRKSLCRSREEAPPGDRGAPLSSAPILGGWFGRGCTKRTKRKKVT
Description: as §1, with “Distinct selectivity profiles were found for each of the inhibitors studied. Different concentrations of TA, TB, TH, or TM were pre-incubated with 1 μM of the sirtuin and 1 mM NAD in 20 mM Tris-HCl buffer (pH 8.0) with 1 mM dithiothreitol (DTT) at 37° C. for 30 minutes. Then 0.05” for “Then 0.05”

MCF10a normal cell line = experiment: Low serum survival assay (normal cell proliferation); assay type: cell-based, human; details: 25 μM, FIG. 3(B), compared with MCF7
[1] = test system: triple negative breast cancer cell line MDA-MB-231; experiment: Soft agar assay (anchorage-independent growth); assay type: cell-based; details: 25 μM, FIGS. 4(A), 4(B)
Description: Next, the ability of these inhibiting compounds to inhibit cancer cell proliferation was tested. MCF-7 and MDA-MB-231 cells (ATCC) were both maintained in RPMI 1640 media (Invitrogen®) supplemented with 10% heat-inactivated fetal bovine serum (FBS). MCF-10A (ATCC) cells were maintained in Dulbecco's Modified Eagle Medium: Nutrient Mixture F-12 (DMEM/F12) (Invitrogen®) supplemented with 10% horse serum (Invitrogen®).
The 0.6% agarose type VII (Sigma), 10% FBS and 1% Penicillin-Streptomycin (Invitrogen®) were prepared in RPMI 1640 medium, and added to a six-well culture plate (2 mL/well). The plates were kept at […] for 20 minutes to allow the agarose to solidify. Plates were then incubated at 37° C. for 5 minutes before the addition of the 1 mL soft agar/cell solution prepared by mixing 0.3% agarose type VII, 10% FBS, 1% Penicillin-Streptomycin and ˜3000 cells in RPMI 1640 medium. Again, the plates were kept at 4° C. for 20 minutes to allow the agarose to solidify. After the plates were incubated at 37° C. for 7 days, 1 mL of RPMI 1640 medium with 0.3% agarose type VII, 10% FBS and 1% Penicillin-Streptomycin was added to the plates and the plates kept at 4° C. for 20 minutes to allow the agarose to solidify. After the plates were incubated at 37° C. for another 7 days, the colony formations were examined under a microscope. All the experiments were duplicated. […]

Sirt1, sequence (Q96EB6 whole entry): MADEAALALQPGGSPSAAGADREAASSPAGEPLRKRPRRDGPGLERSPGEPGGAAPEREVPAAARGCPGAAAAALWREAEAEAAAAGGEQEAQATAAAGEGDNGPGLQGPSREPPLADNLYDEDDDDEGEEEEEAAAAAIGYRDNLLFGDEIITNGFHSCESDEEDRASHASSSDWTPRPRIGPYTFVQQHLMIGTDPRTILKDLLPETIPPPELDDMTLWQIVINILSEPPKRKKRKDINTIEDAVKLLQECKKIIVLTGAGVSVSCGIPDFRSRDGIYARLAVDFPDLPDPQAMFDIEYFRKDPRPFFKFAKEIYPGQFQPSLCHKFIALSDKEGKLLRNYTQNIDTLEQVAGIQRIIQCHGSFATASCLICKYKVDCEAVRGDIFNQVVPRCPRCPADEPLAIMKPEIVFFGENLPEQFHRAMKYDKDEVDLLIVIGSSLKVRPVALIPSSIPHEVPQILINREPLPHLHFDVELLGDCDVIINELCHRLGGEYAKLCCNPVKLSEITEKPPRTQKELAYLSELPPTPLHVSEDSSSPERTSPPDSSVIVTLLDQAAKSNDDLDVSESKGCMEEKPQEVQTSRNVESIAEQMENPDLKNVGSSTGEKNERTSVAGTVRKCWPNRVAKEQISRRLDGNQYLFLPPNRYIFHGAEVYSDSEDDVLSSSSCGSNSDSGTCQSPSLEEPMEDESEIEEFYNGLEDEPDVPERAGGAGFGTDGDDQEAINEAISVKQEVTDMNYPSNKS

CC(=S)NCCCCC(NC(=O)OCc1ccccc1)C(=O)Nc1ccccc1 (stereo not shown) [TA]
IC50 (Sirt1): 30 µM | IC50 (Sirt2): 105 µM | IC50 (Sirt3): > 205 µM | IC50 (Sirt5): > 205 µM | IC50 (Sirt6): > 205 µM | IC50 (Sirt7): > 205 µM

CCCC(=S)NCCCCC(NC(=O)OCc1ccccc1)C(=O)Nc1ccccc1 (stereo not shown) [TB]
IC50 (Sirt1): 2.4 µM | inhibition of Sirt1 (in words) (Sirt1): efficiently inhibit | IC50 (Sirt2): 3 µM | IC50 (Sirt5): > 205 µM | IC50 (Sirt6): > 205 µM | IC50 (Sirt7): > 205 µM

CCCCCCC(=S)NCCCCC(NC(=O)OCc1ccccc1)C(=O)Nc1ccccc1 (stereo not shown) [TH]
IC50 (Sirt1): 0.31 µM | inhibition of Sirt1 (in words) (Sirt1): efficiently inhibit | IC50 (Sirt2): 0.12 µM | inhibition of Sirt2 (in words) (Sirt2; summary of Table 1): efficiently inhibit | IC50 (Sirt5): > 205 µM | IC50 (Sirt6): > 205 µM | IC50 (Sirt7): > 205 µM | effect on growth of MCF10a normal non-tumorigenic cells (MCF10a normal cell line): much less than that in the MCF7 cancer cell line; also recorded: can still grow

CCCCCCCCCCCCCC(=S)NCCCCC(NC(=O)OCc1ccccc1)C(=O)Nc1ccccc1 (stereo not shown) [TM]
IC50 (Sirt5): > 205 µM | IC50 (Sirt6): > 205 µM | IC50 (Sirt7): > 205 µM | effect on growth of MCF10a normal non-tumorigenic cells (MCF10a normal cell line): much less than that in the MCF7 cancer cell line; also recorded: can still grow | inhibition of anchorage-independent growth of MDA-MB-231 [1]: can inhibit the anchorage-independent growth
